What all share (type): cell-based
In test [1] the test system is PGC-1α. Kind of test: PGC-1α protein expression, immunoblot and densitometry in 3T3 L1 preadipocytes. The note with it: 60 μM, 24 hours, control = 100%. How it is done: 3T3L1 cells were purchased from American Type Culture Collection (Manassas, Va., USA) and cultured in DMEM media containing 4.5 g/l glucose supplemented with 10% fetal bovine serum (Hyclone), 2 mM L-glutamine (Gibco), 100 U/ml penicillin, and 100 μg/ml streptomycin (Gibco). The cells were cultured at 37° C. in a humidified atmosphere with 10% CO2. […]
Protein concentrations were measured using a BCA (bicinchoninic acid) protein assay kit (Cat.#23225; Pierce, Rockford, Ill.). Twenty (20) μg/lane of total cellular protein samples containing NuPAGE LDS sample buffer (Invitrogen) and reducing agent were loaded into 4-12% NuPAGE Bis-Tris gels (Invitrogen), subjected to gel electrophoresis, and transferred to polyvinylidene fluoride membranes (Amersham). For SIRT1 proteins, membranes were blocked in 0.05% TBS-Tween with 3% milk for 1 hour, incubated overnight at +4° C. with SIRT1 primary antibodies (Cat.#07-131, Millipore). For phospho-AMPKα and AMPKα proteins, blocking was done for 1 hour in 0.1% TBS-Tween with 5% milk. The membranes were incubated overnight at +4° C. with phospho-AMPKα (Cat. #2535, Cell Signaling) and AMPKα (Cat.#2532, Cell Signaling) primary antibodies. Horseradish peroxidase-conjugated anti-rabbit antibodies (Cat. #NA934V GE Health Care, Amersham, U.K) were used as secondary antibodies. For α-tubulin (loading control), membranes were blocked in 0.05% PBS-Tween with 3% milk for 1 hour, incubated with α-tubulin (Cat.# B-5-1-2, Sigma) primary antibodies for 1 hour at room temperature and horseradish peroxidase-conjugated anti-mouse (Cat. # NA 931V GE Health Care, Amersham, U.K.) IgG antibodies were used as secondary antibodies.
The membranes were developed using chemiluminescence (ECL plus, GE Health Care), and images were captured in an Image Quant RT-ECL machine (version 1.0.1; GE Health Care). Densitometry and quantification of the bands were done by applying Quantity One software (Bio-Rad). The expression levels of the proteins were normalized to α-tubulin protein levels.
PGC-1α as an indicator of SIRT1 activity: PGC-1α has been extensively described as a master regulator of mitochondrial biogenesis. […] When SIRT1 protein expression is induced, it interacts with and deacetylates PGC-1α in an NAD-dependent manner. Thus SIRT1 acts as a modulator of PGC-1a (Rodgers J T et al, Nature 2005). The effects of resveratrol, a nonselective SIRT1 activator, were associated with an induction of genes for oxidative phosphorylation and mitochondrial biogenesis, and were largely explained by a resveratrol-mediated decrease in PGC-1α acetylation and an increase in PGC-1α activity (Lagouge M, Cell 2006). Therefore, PGC-1α protein expression serves as an indicator of SIRT1 activity.
3T3L1 cells were purchased from American Type Culture Collection (Manassas, Va., USA) and cultured in DMEM media containing 4.5 g/l glucose supplemented with 10% fetal bovine serum (Hyclone), 2 mM L-glutamine (Gibco) and 100 U/ml penicillin, 100 μg/ml streptomycin (Gibco). The cells were cultured at 37° C. in a humidified atmosphere with 10% CO2. 3T3L1 preadipocytes were plated at 1×10^5 cells/well in 6 well plates and incubated at 37° C. in a humidified atmosphere with 10% CO2. The media was removed after 24 hours and the cells were treated with 60 μM GR24 or with 60 μM 1A, 1B, 5A, 5B, 6A, or 7A and incubated for 24 hours at 37° C. in a humidified atmosphere with 10% CO2. In all experiments, the controls were treated with the same volume of DMSO as was used to dissolve compounds in compound-treated cells to show and ensure that the actual change in protein expression in different treatments was only due to the compounds […]. The media was removed, cells were washed with PBS and cell lysates were collected on ice. Proteins were extracted using RIPA buffer along with protease and phosphatase inhibitors. Lysates were centrifuged for 30 min at high speed; supernatant was collected and stored at −70° C. until further analysis.

Another test relates to AMPK. Kind of test: total AMPK expression, immunoblot in 3T3L1 preadipocytes. To be noted: 100 μM, 24 hours. How it is done:
3T3L1 cells were purchased from American Type Culture Collection (Manassas, Va., USA) and cultured in DMEM media containing 4.5 g/l glucose supplemented with 10% fetal bovine serum (Hyclone), 2 mM L-glutamine (Gibco), 100 U/ml penicillin, and 100 μg/ml streptomycin (Gibco). The cells were cultured at 37° C. in a humidified atmosphere with 10% CO2.
The 3T3L1 cells were plated at 6×10^4 cells/well in 12 well plates and incubated at 37° C. in a humidified atmosphere with 10% CO2. […] The media was removed, cells were washed with PBS, and cell lysates were collected on ice. Proteins were extracted using RIPA buffer along with protease and phosphatase inhibitors. Lysates were centrifuged for 30 min at high speed; supernatant was collected and stored at […] until further analysis. The vehicle controls were 3T3 L1 cells without any treatment with drugs or other compounds. The drugs or compounds that were used in all the experiments were dissolved or diluted in dimethylsulfoxide (DMSO) as diluent. […]
Protein concentrations were measured using a BCA (bicinchoninic acid) protein assay kit (Cat.#23225; Pierce, Rockford, Ill.). […]
The membranes were developed using chemiluminescence (ECL plus, GE Health Care), and images were captured in an Image Quant RT-ECL machine (version 1.0.1; GE Health Care). Densitometry and quantification of the bands were done by applying Quantity One software (Bio-Rad). […]

The subject of test [2] is mitochondria of 3T3L1 preadipocytes. Kind of test: Mitochondrial staining with MitoTracker green, confocal microscopy. The note with it: 60 μM, 24 hours. How it is done:
The 3T3L1 preadipocytes were plated onto Ibidi u-slide 8 well plates at 1.6×10^4 cells/well and incubated at 37° C. in a humidified atmosphere with 10% CO2. The media was removed after 24 hours, the cells were treated with 60 μM GR24 and incubated for 24 hours at 37° C. in a humidified atmosphere with 10% CO2. After 24 hours of treatment, staining of mitochondria was done using 200 nM MitoTracker Mitochondrion-Selective Probes (Green FM probes Cat.#M7514, Invitrogen) according to the manufacturer's instructions. The cells were observed using a confocal microscope and images were taken at 40× oil immersion.
Preadipocytes were treated with DMSO (Vehicle control) (FIG. 5A), 60 μM resveratrol (FIG. 5B) or 60 μM strigolactone analog GR24 (FIG. 5C) for 24 hours. Next, preadipocytes were stained with MitoTracker green and observed under a confocal microscope at 40× oil immersion. […] The white oval shaped structures are nucleus and the white thread-like structures around the nucleus in the cytoplasm are mitochondria. When compared to the control, there was an increase in mitochondrial biogenesis represented by elongated mitochondria, and an increase in mitochondrial activation represented by the intensity of fluorescence, in cells treated with resveratrol and GR24. […] Thus, GR24 enhances both biogenesis and activity of mitochondria, which is necessary to generate ATP.

For test [3], the system named is PGC-1α. Kind of test: PGC-1α protein expression, immunoblot and densitometry in 3T3 L1 preadipocytes. The note with it: 3T3L1 preadipocytes, 100 μM, 24 hours.

Several values for one entry are separate records, joined by “and”; a condition that tells them apart may be missing. Equal entries are not always repeated.

Take `CC1=CC(O/C=C2/C(=O)O[C@@H]3c4ccccc4C[C@H]23)OC1=O` (stereo partly shown) [GR24]: in the test on PGC-1α [1], the “PGC-1α protein expression compared to control (100%)” value was 168% and 164% and 198% and 220% and 149%. The “total AMPK expression vs control” value in the test with AMPK is reported as “down-regulated”. Also, in test [2], the “increase in intensity of staining, visibility” value is on record as “clearly visible only in the GR24 treated cells”; the “mitochondrial activation (intensity of fluorescence) compared to control” value was “increase”; the “mitochondrial biogenesis (elongated mitochondria) compared to control” value is recorded as “increase”. For the same compound, the “PGC-1α expression vs control” value in the test on PGC-1α [3] was “significantly increased”. Besides, the “PGC-1α expression vs control” value with PGC-1α [3] (listed as GR 24) is on record as “activation”.

Source of the values: patent US20140142170A1, “COMPOSITION AND METHOD FOR INFLUENCING ENERGY METABOLISM AND TREATING METABOLIC AND OTHER DISORDERS” (SIRTUIN VALLEY OY, priority 2010, published 2014).
